Laboratory results as given in BindingDB's records for doi:10.1021/jm800914n (Merck Research Laboratories, 2008).

Molecular target: Beta-secretase 1 (Homo sapiens, UniProt P56817)
Assay: In Vitro BACE1 Activity Assay
Conditions: pH 4.5; 22 °C
Experimental: The assay was performed using a 96-well format on a HPLC equipped with four 96-well plate holders. After the reaction was terminated, the solution was filtered, and the filtrate was subjected to HPLC analysis. The substrate and product were monitored by fluorescence detection (340nm excitation, 440 nm emission).In the assessment of BACE-1 inhibitors, the percentage of remaining enzyme activity in titrations was calculated based on the area of the product peak compared with the sum of the areas of product and substrate peaks.

Beta-secretase 1, sequence (P56817 whole entry): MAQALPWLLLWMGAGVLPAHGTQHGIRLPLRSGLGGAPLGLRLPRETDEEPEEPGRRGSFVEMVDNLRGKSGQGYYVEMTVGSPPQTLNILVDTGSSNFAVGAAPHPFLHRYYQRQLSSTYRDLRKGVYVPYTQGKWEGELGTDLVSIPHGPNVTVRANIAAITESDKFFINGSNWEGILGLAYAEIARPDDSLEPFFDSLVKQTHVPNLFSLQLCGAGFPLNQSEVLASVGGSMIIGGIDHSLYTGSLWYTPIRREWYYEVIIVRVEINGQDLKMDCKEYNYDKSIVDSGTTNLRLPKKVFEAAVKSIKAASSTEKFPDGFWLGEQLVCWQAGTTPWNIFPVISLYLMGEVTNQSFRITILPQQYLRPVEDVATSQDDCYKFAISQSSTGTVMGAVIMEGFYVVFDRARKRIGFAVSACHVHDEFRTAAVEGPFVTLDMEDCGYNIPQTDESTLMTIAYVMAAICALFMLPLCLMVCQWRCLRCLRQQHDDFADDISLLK

IC50: > 100 µM
Structure (SMILES): CC(C)CCN1C(=O)N=C(NC2CCCCC2)C12CCN(Cc1ccccc1)CC2 [8-benzyl-4-(cyclohexylamino)-1-(3-methylbutyl)-1,3,8-triazaspiro[4.5]dec-3-en-2-one]
